Data on nine molecules can be found in PMC12698583, “Efficacy of sulfonamides targeting malic enzyme in an animal model of Chagas disease” (Frontiers in Pharmacology, 2025).

The subject of data set [1] is T. cruzi Dm28c strain intracellular form infecting H9c2 rat cardiomyoblasts. Briefly: T. cruzi intracellular image-based assay. Format: cell-based, Trypanosoma cruzi. As for the experimental part:
(§1) Tested compounds were dissolved and serially diluted in dimethylsulfoxide (DMSO) using a half-log dilution across six concentrations. Intermediate plates were prepared by diluting compounds 1:25 in DMEM (Dulbecco’s Modified Eagle Medium) with 10% FBS (Fetal Bovine Serum). The assay was based on [Fredo Naciuk et al. (2020)], with minor modifications. Briefly, T. cruzi trypomastigotes (from LLC-MK2 cultures, 6 days post-infection) were used to infect H9c2 rat cardiomyoblasts overnight (16–18 h) at MOI 1. After washing with PBS, cells were trypsinized and resuspended in DMEM at 2.3 × 10^4 cells/mL. Then, 65 μL per well was plated in 384-well plates and incubated for 24 h (37 °C, 5% CO2, >95% humidity). Subsequently, 7.5 μL of compound solution was added (final [DMSO] 0.4%). After 72 h of treatment, cells were fixed with 4% PFA and stained with Hoechst 33342 (4 μg/mL). Six images per well were acquired using the Operetta system (PerkinElmer) and analyzed with Columbus software to quantify infected cells (≥3 cytoplasmic parasite spots).

The nature of data set [2]: Chemical stability at physiological pHs. It counts as physicochemical. The note with it: basic pH, 37 °C, 24 h. As for the experimental part: These conditions simulate stomach acidity, plasma neutrality, and intestinal basicity.
For the chemical stability experiment, the compounds were evaluated under the same conditions with an additional incubation at 37 °C for a period of 24 h. The analysis was performed using an analytical method developed and validated by high-performance liquid chromatography with UV detection (HPLC-UV). Compounds were quantified in different pH media by comparing the areas where the substances were completely soluble with those in the reaction media. The experiments were performed in a triplicate.
These conditions simulate stomach acidity, plasma neutrality, and intestinal basicity. […] For the chemical stability experiment, the compounds were evaluated under the same conditions with an additional incubation at 37°C for a period of 24 hours. The analysis was performed using an analytical method developed and validated by high-performance liquid chromatography with UV detection (HPLC-UV). Compounds were quantified in the different pH media by comparing the areas where the substances were completely soluble with those in the reaction media. The experiments were performed in triplicate.

Data set [3] is described as follows: Host cell cytotoxicity in the image-based assay (total host cells). The note with it: rat, H9c2 rat cardiomyoblasts (infected with T. cruzi), 72 h treatment. As for the experimental part:
as §1

Data set [4] concerns the target T1, T. cruzi malic enzyme (TcME) (Trypanosoma cruzi, UniProt Q4DJ68). Nature of the data set: Malic enzyme (TcME) inhibition assay, diaphorase/resazurin coupled. Format: biochemical. As for the experimental part: The TcME inhibition assay was performed as previously described, with minor modifications ([Mercaldi et al., 2021]). Briefly, a coupled assay with the enzyme diaphorase and resorufin fluorescence (Ex 545 nm/Em 600 nm) was recorded every 30 s for 6 min in a CLARIOstar plate reader (BMG LabTech). The final concentrations of reagents in the assay were: 0.02 mM NADP+, 0.4 mM L-aspartate, 0.45 nM TcMEc, 1 U/mL diaphorase, and 10 μM resazurin, all in 50 mM Tris-HCl buffer containing 50 mM NaCl and 2 mM MnCl2 at pH 7.5. The reaction was initiated by adding 1.32 mM L-malate.

Data set [5] addresses T1, T. cruzi malic enzyme (TcME). Further details: method as in Mercaldi et al. (2021). The note with it: TcME (cytosolic isoform); ref Mercaldi et al. (2021); cited from earlier work.
Data set [6] concerns T. cruzi Dm28c strain intracellular form infecting H9c2 rat cardiomyoblasts. The note with it: cited from earlier work.
The test system of a further data set is H9c2 rat cardiomyoblasts. Also on record: method as in Mercaldi et al. (2021) and Peña et al. (2015). The note with it: total host cells; ref Mercaldi et al. (2021) and Peña et al. (2015); cited from earlier work.

“Also recorded” adds a separate entry of the source. Where two headings read alike, the source gives them in different places. Where only a bound is given, the exact number is not on record here.

For orientation: CC50 means the concentration that lowers cell viability or growth by half. The IC50 is the midpoint of a concentration-inhibition curve. Broadly, the EC50 is the concentration giving half of the maximal effect.

T1 sequence (Q4DJ68 entry or part of it): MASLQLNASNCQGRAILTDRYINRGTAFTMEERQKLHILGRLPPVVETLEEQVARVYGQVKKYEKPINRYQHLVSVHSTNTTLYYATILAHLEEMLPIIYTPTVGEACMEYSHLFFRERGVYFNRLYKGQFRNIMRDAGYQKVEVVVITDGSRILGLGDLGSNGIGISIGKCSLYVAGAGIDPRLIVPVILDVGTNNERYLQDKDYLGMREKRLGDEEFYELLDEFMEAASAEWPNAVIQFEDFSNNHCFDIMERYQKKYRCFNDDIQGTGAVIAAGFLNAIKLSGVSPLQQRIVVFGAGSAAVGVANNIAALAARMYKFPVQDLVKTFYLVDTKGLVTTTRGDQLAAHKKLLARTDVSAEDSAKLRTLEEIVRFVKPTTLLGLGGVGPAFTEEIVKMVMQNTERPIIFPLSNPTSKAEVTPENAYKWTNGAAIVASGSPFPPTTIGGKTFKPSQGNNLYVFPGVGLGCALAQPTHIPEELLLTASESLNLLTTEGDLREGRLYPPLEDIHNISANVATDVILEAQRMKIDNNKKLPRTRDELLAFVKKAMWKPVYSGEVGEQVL

In turn, `CC(C)Oc1ccc(NS(=O)(=O)c2cccc(NC(=O)c3cc(F)cc(F)c3)c2)cc1` [AC-M109, 3,5-difluoro-N-(3-(N-(4-isopropoxyphenyl)sulfamoyl)phenyl)benzamide] yielded an SI in data set [1] (Selectivity index) of 318. In data set [2], the Chemical stability is listed as no more than 40%. Besides, the CC50 at 72 h in data set [3] is 12000 nM. Also, it took 860 nM to reach half-maximal inhibition in data set [4] (concentration necessary to inhibit 50% of T. cruzi Malic enzyme enzymatic activity) (IC50).
Regarding `COc1ccc(NS(=O)(=O)c2ccc(NC(=O)c3cc(F)cc(F)c3)cc2)cc1` [AC-R001, 3,5-difluoro-N-(4-(N-(4-methoxyphenyl)sulfamoyl)phenyl)benzamide], the “activity against T. cruzi intracellular forms (in words)” value in data set [1] is given as “Inactive; also recorded: didn´t affect the parasite”. Also, the “activity against TcME (in words)” value in data set [4] is on record as “not active”.
On the same counts, the results for `COc1ccc(NS(=O)(=O)c2ccc(NC(=O)c3cnccn3)cc2)cc1` [AC-R009, N-(4-(N-(4-methoxyphenyl)sulfamoyl)phenyl)pyrazine-2-carboxamide] are “Inactive; also recorded: didn´t affect the parasite” and “not active”.
On the same counts, the results for `CC(C)Oc1ccc(NS(=O)(=O)c2ccc(NC(=O)c3cnccn3)cc2)cc1` [AC-R010, N-(4-(N-(4-isopropoxyphenyl)sulfamoyl)phenyl)pyrazine-2-carboxamide] are “Inactive; also recorded: didn´t affect the parasite” and “not active”.
As for `COc1ccc(NS(=O)(=O)c2cccc(NC(=O)c3cc(F)cc(F)c3)c2)cc1` [TCMDC-143108], the IC50 in data set [5] was 80 nM. Besides, the SI in data set [6] (Selectivity index, ref Mercaldi et al. (2021) and Peña et al. (2015)) is on record as greater than 84. Also, in data set [6] (host cells infected by T. cruzi amastigotes, ref Peña et al. (2015)), the concentration giving a half-maximal response (EC50) was 500 nM. Moreover, the CC50 in the data set on H9c2 rat cardiomyoblasts was greater than 42000 nM.
Turning to `COc1ccc(NS(=O)(=O)c2cccc([N+](=O)[O-])c2)cc1` [compound 5, N-(4-methoxyphenyl)-3-nitrobenzenesulfonamide], the “activity against T. cruzi intracellular forms (in words)” value in data set [1] is “not active”. Besides, in data set [4], the “activity against TcME (in words)” value was “not active”.
In the case of `CC(C)Oc1ccc(NS(=O)(=O)c2cccc([N+](=O)[O-])c2)cc1` [compound 6, N-(4-isopropoxyphenyl)-3-nitrobenzenesulfonamide], in data set [1], the “activity against T. cruzi intracellular forms (in words)” value is given as “not active”. In addition, the “activity against TcME (in words)” value in data set [4] is recorded as “not active”.
For `COc1ccc(NS(=O)(=O)c2cccc(N)c2)cc1` [compound 9, 3-amino-N-(4-methoxyphenyl)benzenesulfonamide], the “activity against T. cruzi intracellular forms (in words)” value in data set [1] is “not active”. Moreover, in data set [4], the “activity against TcME (in words)” value is listed as “not active”.
With `CC(C)Oc1ccc(NS(=O)(=O)c2cccc(N)c2)cc1` [compound 10, 3-amino-N-(4-isopropoxyphenyl)benzenesulfonamide], the “activity against T. cruzi intracellular forms (in words)” value in data set [1] is reported as “not active”. Moreover, the “activity against TcME (in words)” value in data set [4] is “not active”.
